According to patent publication US11247990B1, “Bicyclic fused pyridine compounds as inhibitors of TAM kinases” (ARRAY BIOPHARMA INC., priority 2017, dated 2022):
Counter-ions that a name gives are not always drawn.

Experiments:
Settings in all cases: averaged IC50
[1] = biological target: His-tagged recombinant human AXL cytoplasmic domain (Homo sapiens (Human), UniProt P30530); experiment: AXL Enzyme Assay (LanthaScreen Eu Kinase Binding, TR-FRET)
Procedure, shortened: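 Compound displacement measured by TR-FRET after 60 min at 22 °C, using Eu-based LanthaScreen binding technology. Ratiometric emission converted to percent of control, fitted to a 4-parameter logistic curve, with IC50 at 50 POC.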

[2] = biological target: His-tagged recombinant human MER cytoplasmic domain (Homo sapiens (Human), UniProt Q12866); experiment: MER Enzyme Assay (LanthaScreen Eu Kinase Binding, TR-FRET)
Sequence of His-tagged recombinant human MER cytoplasmic domain (Q12866 527-999): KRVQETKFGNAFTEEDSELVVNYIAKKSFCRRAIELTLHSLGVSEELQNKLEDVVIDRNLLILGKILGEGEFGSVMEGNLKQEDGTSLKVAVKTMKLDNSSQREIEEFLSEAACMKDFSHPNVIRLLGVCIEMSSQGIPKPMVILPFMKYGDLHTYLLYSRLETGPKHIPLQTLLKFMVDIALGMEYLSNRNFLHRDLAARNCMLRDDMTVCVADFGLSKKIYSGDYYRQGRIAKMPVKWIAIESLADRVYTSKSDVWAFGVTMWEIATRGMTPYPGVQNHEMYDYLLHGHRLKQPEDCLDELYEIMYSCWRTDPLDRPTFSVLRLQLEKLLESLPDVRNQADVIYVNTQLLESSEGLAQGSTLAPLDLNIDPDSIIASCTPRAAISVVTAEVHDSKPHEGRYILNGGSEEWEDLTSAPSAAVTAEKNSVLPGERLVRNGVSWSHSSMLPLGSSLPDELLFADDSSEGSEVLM
Procedure, shortened: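 Percent of control, derived from ratiometric TR-FRET emission, was fitted to a 4-parameter logistic curve and IC50 taken at 50 POC. Binding was read after 60 min at 22 °C using Eu-based LanthaScreen technology and recombinant His-tagged MER cytoplasmic domain.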

[3] = biological target: GST-tagged recombinant human TYRO3 kinase domain (Homo sapiens (Human), UniProt Q06418); experiment: TYRO3 Enzyme Assay (LanthaScreen Eu Kinase Binding, TR-FRET)
Sequence of GST-tagged recombinant human TYRO3 kinase domain (Q06418 518-790): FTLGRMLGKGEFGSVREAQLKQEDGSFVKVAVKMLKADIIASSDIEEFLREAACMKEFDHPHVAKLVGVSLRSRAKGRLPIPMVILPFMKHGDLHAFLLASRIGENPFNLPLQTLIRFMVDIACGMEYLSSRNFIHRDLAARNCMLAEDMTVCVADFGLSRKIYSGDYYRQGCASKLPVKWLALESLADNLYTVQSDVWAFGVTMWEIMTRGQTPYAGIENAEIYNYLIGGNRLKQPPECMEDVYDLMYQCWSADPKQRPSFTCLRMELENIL
Procedure, shortened: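 LanthaScreen Eu binding (tracer displacement) format read by TR-FRET after 60 min at 22 °C. Emission ratio converted to percent of control; IC50 taken where a 4-parameter logistic fit crosses 50 POC.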

Sequence of His-tagged recombinant human AXL cytoplasmic domain (P30530 473-894): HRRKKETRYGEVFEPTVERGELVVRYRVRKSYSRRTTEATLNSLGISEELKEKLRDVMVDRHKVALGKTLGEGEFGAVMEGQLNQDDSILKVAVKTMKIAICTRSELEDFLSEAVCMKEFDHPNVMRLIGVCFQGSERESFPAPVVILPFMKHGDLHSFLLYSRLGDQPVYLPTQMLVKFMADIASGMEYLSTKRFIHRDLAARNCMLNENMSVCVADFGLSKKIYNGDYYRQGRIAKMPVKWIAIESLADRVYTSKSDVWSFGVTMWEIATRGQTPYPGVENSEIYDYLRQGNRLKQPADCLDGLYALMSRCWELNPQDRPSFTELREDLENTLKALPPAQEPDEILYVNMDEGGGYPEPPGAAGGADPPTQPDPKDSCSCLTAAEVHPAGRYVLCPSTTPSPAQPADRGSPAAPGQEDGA

Row | IC50 [1] [nM] | IC50 [2] [nM] | IC50 [3] [nM] | Compound
1 | < 10 | < 10 | < 10 | CCNc1cc2c(cn1)c(-c1cnn(C[C@@H](O)CO)c1)nn2[C@H]1CC[C@@H](Oc2cccnc2C(F)(F)F)CC1 [Example 209, ®-3-(4-(6-(ethylamino)-1-((1s,4R)-4-((2-(trifluoromethyl)pyridin-3-yl)oxy)cyclohexyl)-1H-pyrazolo[4,3-c]pyridin-3-yl)-1H-pyrazol-1-yl)propane-1,2-diol]
2 | < 10 | < 10 | < 10 | CNc1cc2c(cn1)c(-c1cnn(C(CO)CO)c1)nn2[C@H]1CC[C@@H](Oc2cccnc2C(F)(F)F)CC1 [Example 210, 2-(4-(6-(methylamino)-1-((1 s,4s)-4-((2-(trifluoromethyl)pyridin-3-yl)oxy)cyclohexyl)-1H-pyrazolo[4,3-c]pyridin-3-yl)-1H-pyrazol-1-yl)propane-1,3-diol]
3 | < 10 | < 10 | 10 to 100 | CNc1cc2c(cn1)c(-c1cnn(CCS(C)(=O)=O)c1)nn2[C@H]1CC[C@@H](Oc2nccnc2C)CC1 [Example 211, N-methyl-1-((1s,4s)-4-((3-methylpyrazin-2-yl)oxy)cyclohexyl)-3-(1-(2-(methylsulfonyl)ethyl)-1H-pyrazol-4-yl)-1H-pyrazolo[4,3-c]pyridin-6-amine]
4 | < 10 | < 10 | 10 to 100 | CNc1cc2c(cn1)c(-c1cnn(C(C)(C)C#N)c1)nn2[C@H]1CC[C@@H](Oc2nccnc2C)CC1 [Example 212, 2-methyl-2-(4-(6-(methylamino)-1-((1s,4s)-4-((3-methylpyrazin-2-yl)oxy)cyclohexyl)-1H-pyrazolo[4,3-c]pyridin-3-yl)-1H-pyrazol-1-yl)propanenitrile]
5 | < 10 | < 10 | 10 to 100 | CNc1cc2c(cn1)c(-c1cnn(C3CCN(C)CC3)c1)nn2[C@H]1CC[C@@H](Oc2nccnc2C)CC1 [Example 214, N-methyl-3-(1-(1-methylpiperidin-4-yl)-1H-pyrazol-4-yl)-1-((1s,4s)-4-((3-methylpyrazin-2-yl)oxy)cyclohexyl)-1H-pyrazolo[4,3-c]pyridin-6-amine]
6 | < 10 | < 10 | 10 to 100 | CNc1cc2c(cn1)c(-c1cnn(CC3CCOCC3)c1)nn2[C@H]1CC[C@@H](Oc2nccnc2C)CC1 [Example 215, N-methyl-1-((1s,4s)-4-((3-methylpyrazin-2-yl)oxy)cyclohexyl)-3-(1-((tetrahydro-2H-pyran-4-yl)methyl)-1H-pyrazol-4-yl)-1H-pyrazolo[4,3-c]pyridin-6-amine]
7 | < 10 | < 10 | < 10 | CNc1cc2c(cn1)c(-c1ccn(C)c(=O)c1)nn2[C@H]1CC[C@@H](Oc2cccnc2C(F)(F)F)CC1 [Example 216, 1-methyl-4-(6-(methylamino)-1-((1s,4s)-4-((2-(trifluoromethyl)pyridin-3-yl)oxy)cyclohexyl)-1H-pyrazolo[4,3-c]pyridin-3-yl)pyridin-2(1H)-one]
8 | < 10 | < 10 | < 10 | CNc1cc2c(cn1)c(-c1ccc(=O)n(C)c1)nn2[C@H]1CC[C@@H](Oc2cccnc2C(F)(F)F)CC1 [Example 217, 1-methyl-5-(6-(methylamino)-1-((1s,4s)-4-((2-(trifluoromethyl)pyridin-3-yl)oxy)cyclohexyl)-1H-pyrazolo[4,3-c]pyridin-3-yl)pyridin-2(1H)-one]
9 | < 10 | < 10 | < 10 | CNc1cc2c(cn1)c(-c1ccc3c(c1)CNC3=O)nn2[C@H]1CC[C@@H](Oc2cccnc2C(F)(F)F)CC1 [Example 218, 5-(6-(methylamino)-1-((1s,4s)-4-((2-(trifluoromethyl)pyridin-3-yl)oxy)cyclohexyl)-1H-pyrazolo[4,3-c]pyridin-3-yl)isoindolin-1-one]
10 | < 10 | < 10 | < 10 | CCNc1cc2c(cn1)c(-c1ccn(C)c(=O)c1)nn2[C@H]1CC[C@@H](Oc2cccnc2C(F)(F)F)CC1 [Example 219, 4-(6-(ethylamino)-1-((1s,4s)-4-((2-(trifluoromethyl)pyridin-3-yl)oxy)cyclohexyl)-1H-pyrazolo[4,3-c]pyridin-3-yl)-1-methylpyridin-2(1H)-one hydrochloride]
11 | < 10 | < 10 | < 10 | CCNc1cc2c(cn1)c(-c1ccc3c(c1)CNS3(=O)=O)nn2[C@H]1CC[C@@H](Oc2cn(C)nc2C(F)(F)F)CC1 [Example 221, 5-(6-(ethylamino)-1-((1s,4s)-4-((1-methyl-3-(trifluoromethyl)-1H-pyrazol-4-yl)oxy)cyclohexyl)-1H-pyrazolo[4,3-c]pyridin-3-yl)-2,3-dihydrobenzo[d]isothiazole 1,1-dioxide]
12 | < 10 | < 10 | < 10 | CCNc1cc2c(cn1)c(-c1ccc3c(c1)CN(C)S3(=O)=O)nn2[C@H]1CC[C@@H](Oc2cn(C)nc2C(F)(F)F)CC1 [Example 222, 5-(6-(ethylamino)-1-((1s,4s)-4-((1-methyl-3-(trifluoromethyl)-1H-pyrazol-4-yl)oxy)cyclohexyl)-1H-pyrazolo[4,3-c]pyridin-3-yl)-2-methyl-2,3-dihydrobenzo[d]isothiazole 1,1-dioxide]
13 | < 10 | < 10 | 10 to 100 | CCNc1cc2c(cn1)c(-c1cnn(C[C@H](O)C(C)(C)O)c1)nn2[C@H]1CC[C@@H](Oc2nccc(C(F)(F)F)c2F)CC1 [Example 236, (S)-1-(4-(6-(ethylamino)-1-((1s,4R)-4-((3-fluoro-4-(trifluoromethyl)pyridin-2-yl)oxy)cyclohexyl)-1H-pyrazolo[4,3-c]pyridin-3-yl)-1H-pyrazol-1-yl)-3-methylbutane-2,3-diol]
14 | < 10 | < 10 | 10 to 100 | CCNc1cc2c(cn1)c(-c1cnn(C[C@@H](O)C(C)(C)O)c1)nn2[C@H]1CC[C@@H](Oc2nccc(C(F)(F)F)c2F)CC1 [Example 237, (R)-1-(4-(6-(ethylamino)-1-((1s,4R)-4-((3-fluoro-4-(trifluoromethyl)pyridin-2-yl)oxy)cyclohexyl)-1H-pyrazolo[4,3-c]pyridin-3-yl)-1H-pyrazol-1-yl)-3-methylbutane-2,3-diol]
15 | < 10 | < 10 | 10 to 100 | CCNc1cc2c(cn1)c(-c1cnn(CC(C)(O)CO)c1)nn2[C@H]1CC[C@@H](Oc2nccc(C(F)(F)F)c2F)CC1 (stereo partly drawn) [Example 238, 3-(4-(6-(ethylamino)-1-((1s,4s)-4-((3-fluoro-4-(trifluoromethyl)pyridin-2-yl)oxy)cyclohexyl)-1H-pyrazolo[4,3-c]pyridin-3-yl)-1H-pyrazol-1-yl)-2-methylpropane-1,2-diol]
16 | < 10 | < 10 | < 10 | CCNc1cc2c(cn1)c(-c1cnn(C[C@H](O)[C@H](C)O)c1)nn2[C@H]1CC[C@@H](Oc2nccc(C(F)(F)F)c2F)CC1 [Example 239, (2S,3S)-1-(4-(6-(ethylamino)-1-((1s,4R)-4-((3-fluoro-4-(trifluoromethyl)pyridin-2-yl)oxy)cyclohexyl)-1H-pyrazolo[4,3-c]pyridin-3-yl)-1H-pyrazol-1-yl)butane-2,3-diol]
17 | < 10 | < 10 | 10 to 100 | CCNc1cc2c(cn1)c(-c1cnn(C[C@@H](O)CO)c1)nn2[C@H]1CC[C@@H](Oc2cc(Cl)ccn2)CC1 [Example 246, (R)-3-(4-(1-((1s,4S)-4-((4-chloropyridin-2-yl)oxy)cyclohexyl)-6-(ethylamino)-1H-pyrazolo[4,3-c]pyridin-3-yl)-1H-pyrazol-1-yl)propane-1,2-diol]
18 | < 10 | < 10 | < 10 | CCNc1cc2c(cn1)c(-c1cnn(C[C@@H](O)C(C)(C)O)c1)nn2[C@H]1CC[C@@H](Oc2cn(C)nc2C(F)(F)F)CC1 [Example 247, (R)-1-(4-(6-(ethylamino)-1-((1s,4S)-4-((1-methyl-3-(trifluoromethyl)-1H-pyrazol-4-yl)oxy)cyclohexyl)-1H-pyrazolo[4,3-c]pyridin-3-yl)-1H-pyrazol-1-yl)-3-methylbutane-2,3-diol]
19 | < 10 | < 10 | < 10 | CCNc1cc2c(cn1)c(-c1cnn(CC(N)=O)c1)nn2[C@H]1CC[C@@H](Oc2nccc(C(F)(F)F)c2F)CC1 [Example 248, 2-(4-(6-(ethylamino)-1-((1s,4s)-4-((3-fluoro-4-(trifluoromethyl)pyridin-2-yl)oxy)cyclohexyl)-1H-pyrazolo[4,3-c]pyridin-3-yl)-1H-pyrazol-1-yl)acetamide]
20 | < 10 | < 10 | 10 to 100 | CCNc1cc2c(cn1)c(C1=CCN(C)CC1)nn2[C@H]1CC[C@@H](Oc2nccc(C(F)(F)F)c2F)CC1 [Example 255]
21 | < 10 | < 10 | < 10 | CCNc1cc2c(cn1)c(-c1cnn(CC(=O)NC)c1)nn2[C@H]1CC[C@@H](Oc2nccc(C(F)(F)F)c2F)CC1 [Example 258, 2-(4-(6-(ethylamino)-1-((1s,4s)-4-((3-fluoro-4-(trifluoromethyl)pyridin-2-yl)oxy)cyclohexyl)-1H-pyrazolo[4,3-c]pyridin-3-yl)-1H-pyrazol-1-yl)-N-methylacetamide]
22 | < 10 | < 10 | 100 to 1000 | CCNc1cc2c(cn1)c(-c1cnn(C(C)(C)C#N)c1)nn2[C@H]1CC[C@@H](Oc2nccc(C(F)(F)F)c2F)CC1 [Example 260, 2-(4-(6-(ethylamino)-1-((1s,4s)-4-((3-fluoro-4-(trifluoromethyl)pyridin-2-yl)oxy)cyclohexyl)-1H-pyrazolo[4,3-c]pyridin-3-yl)-1H-pyrazol-1-yl)-2-methylpropanenitrile]
